Measured values from patent US6992215B2, “Thiol-based NAALADase inhibitors” (Guildford Pharmaceuticals Inc., priority 2001, dated 2006).

Columns and labels:
cortical cell cultures = assay: In Vitro Assay on Ischemia (glutamate toxicity after potassium cyanide / 2-deoxyglucose insult); type: cell-based; conditions: concentration required to cause a 50% reduction in glutamate toxicity following an ischemic insult
Experimental: To examine the in vitro effect of the inventive compounds on ischemia, cortical cell cultures were treated with various compounds of this invention during an ischemic insult utilizing potassium cyanide and 2-deoxyglucose, and for one hour thereafter. For a description of the experimental method used, see Vornov et al., J. Neurochem., Vol. 65, No. 4, pp. […] (1995).

[1] = test system: chronic constrictive injury-induced rats; assay: Neuropathic pain in CCI model (sciatic nerve ligation, thermal hyperalgesia); type: in vivo; conditions: 50, 30, 10, 3, 1 or 0.3 mg/kg for 12 (or 15) days after sciatic nerve ligation, FIGS. 17-22
Experimental: Sciatic nerve ligation, consisting of 4 ligatures tied loosely around the sciatic nerve at 1 mm intervals proximal to the nerve trifurcation, was performed on rats. […] The rats were habituated to a Hargreaves apparatus. An infrared heat source was directed onto the dorsal surface of each rat's hindpaws and the time taken for the rat to withdraw its paws was noted. The difference in scores between the latency of the response for the paw on the operated side versus the paw on the unoperated control side was determined.
The rats were treated with either Compound 49 (10, 1 or 0.1 mg/kg) or a vehicle for 15 days after sciatic nerve ligation. Thermal pain responses were measured at days 0, 1, 5, 8, 11 and 15. The differences in scores for the rats treated with a vehicle and the rats treated with Compound 49 are graphically presented in FIGS. 13-15.
The rats were treated with either Compound 5 (50, 30, 10, 3, 1 or 0.3 mg/kg) or a vehicle for 12 (or 15) days after sciatic nerve ligation. Thermal pain responses were measured at days 0, 1, 5, 8 and 12 (and 15). The differences in scores for the rats treated with a vehicle and the rats treated with Compound 5 are graphically presented in FIGS. 17-22.
The rats received either Compound C (50 mg/kg i.p. daily) or a vehicle starting 10 days post surgery. […] Normal (unoperated) rats had approximately equal latencies for both paws. This effect was significant starting at 11 days of drug treatment and persisted through to the end of the study (for 21 days of daily dosing).

STZ-diabetic rats [2] = assay: Reversal of diabetic neuropathy in STZ model, delayed dosing; type: in vivo; conditions: for neuropathic hyperalgesia (withdrawal latency difference scores) / motor nerve conduction velocity: daily p.o.; for neuropathic hyperalgesia (withdrawal latency difference scores): treatment started 5 weeks post STZ, within two weeks of treatment, FIG. 31; for motor nerve conduction velocity: within 8 weeks of dosing, persisted through 12 weeks, FIG. 32
Experimental: Rats (200 to 225 g) were injected with STZ (70 mg/kg) into the tail vein. Diabetes (>350 mg/dl) was confirmed in all rats, 4 weeks after STZ administration. Rats were left untreated until 35 to 49 days after STZ. Compound D (1, 3, or 10 mg/kg), Compound E (10 mg/kg), or vehicle were dosed daily p.o. following confirmation of hyperalgesia and/or nerve conduction velocity deficits. In separate experiments, onset of treatment was delayed until 60 to 90 days after STZ administration. Nerve conduction velocity or withdrawal response to thermal stimulation of hind paws was measured at intervals, usually bi-weekly for thermal response and monthly for nerve conduction velocity.
Sensory and motor nerve conduction velocities were evaluated using the method of De Koning and Gispen (Peptides 8: 415–422, 1987). Electrophysiological evaluation was carried out within one hour of dosing. Animals were anesthetized with isoflurane and stimulating needle electrodes were inserted close to the sciatic nerve at the sciatic notch and the tibial nerve near the ankle. Recording electrodes were placed over the foot muscles. Stimuli were applied and responses recorded. Motor and sensory nerve conduction velocities were calculated by measuring the distance between the sciatic notch and ankle sites, and the latency between the M-wave and the H-reflex.
Animals were acclimated to the apparatus for at least 5 min. An infra-red source was placed under below the plantar surface of the rat hind-paw. The intensity of the source was adjusted so that latency for normal rats was about 10 secs. Animals were tested for thermal response latency according to the method of Hargreaves et al (Pain 77–88, 1988). Each animal was tested 8 times (4 each hind limb) and the latency of response recorded automatically to nearest 0.1 sec. An average of the last 4 measurements for each paw was calculated (8 total measurements) and noted for each rat.

[3] = test system: STZ-induced diabetic rats; assay: Neuropathic pain in STZ model (Hargreaves thermal nociception); type: in vivo, Sprague-Dawley rats; conditions: 10 mg/kg i.p. daily, treatment started 45 days post-STZ
Experimental: Male Sprague-Dawley rats (200–225 g) were rendered diabetic by intravenous administration of streptozotocin (“STZ”, 70 mg/kg in phosphate buffered saline). Diabetic animals were divided into five groups: one group receiving Compound A (10 mg/kg or 1 mg/kg), Compound D (10 mg/kg or 1 mg/kg) or vehicle. Another group of animals (non-STZ treated) served as non-diabetic controls. Drug/vehicle treatment was started in diabetic animals 45 days post-STZ administration. STZ-induced diabetic rats were tested for sensitivity to a heat source as soon as blood glucose levels rose to 320 mg/dl or above (30 days post STZ). The rats were then acclimated to a Hargreaves apparatus and thermal nociception was monitored using an infrared heat source directed into the dorsal surface of the hindpaw, and the time taken for the animal to remove its paw noted to the nearest 0.1 seconds (see Hargreaves et al., supra, for detailed experimental method). The intensity of the beam source was adjusted such that the mean latency for control animals (non-STZ treated) was approximately 10 seconds. Each animal was tested 8 times and the mean difference score (between mean non-diabetic control latency and mean diabetic latency) are graphically presented in FIGS. 7A and 7B.

BB/W diabetic rats = assay: Progression of neuropathic pain and nerve conduction deficits in BB/W model; type: in vivo
Source text: Male BB/W rats (BRI, Mass) spontaneously develop a cell mediated autoimmune destruction of pancreatic B cells, resulting in onset of insulin-dependent (Type I) diabetes (Guberski 1994). […] This renders them valuable for experimental trials of new compounds for future treatments of this major disorder. In the present study, Compound D and Compound A were examined for their ability to alter the progression of diabetic neuropathy. […] Another group of non-diabetic rats also receiving vehicle were tested. All animals were continuously monitored for body weight, urine volume, blood sugar and glycated haemoglobin. In the first month of the study, all animals were tested for thermal nociception in a Hargreaves apparatus, weekly. After the first month this was done biweekly and then monthly. The testing consists of directing an infrared heat source onto the dorsal surface of the rat hindpaw and noting the time taken for the animal to remove its paw (see Hargreaves et al., supra, for a description of the experimental method). Each animal was tested 8 times and the mean withdrawal latency noted.
Nerve conduction velocity was also measured every two weeks through the first eight weeks of treatment and every month thereafter through to the six months of treatment (see De Koning et al., Peptides, Vol. 8, No. 3, pp. 415–22 (1987) for a description of the experimental method). […] This was apparent starting at 8 weeks of treatment and persisted to a similar degree through to the six month termination point of the study.

STZ-diabetic rats [4] = assay: Diabetic neuropathy in STZ model (motor and sensory nerve conduction velocity); type: in vivo
Experimental: Motor and sensory nerve conduction velocity was also measured in STZ-diabetic animals after 4, 8 and 12 weeks of treatment (see De Koning et al., supra, for a description of the experimental method). Briefly, stimulating needle electrodes were inserted close to the sciatic and tibial nerves with recording electrodes being placed subcutaneously over the distal foot muscles, in anesthetized rats.

SMILES | EC50 (cortical cell cultures) [nM] | difference in scores between the operated and unoperated paws [1] | neuropathic hyperalgesia (withdrawal latency difference scores) (STZ-diabetic rats [2]) | motor nerve conduction velocity (STZ-diabetic rats [2]) | hyperalgesic response (withdrawal latency difference score) [3] | nerve conduction velocity deficits versus diabetic vehicle controls (BB/W diabetic rats; 10 mg/kg daily, from 8 weeks to six months of treatment, FIG. 12) | withdrawal latency versus diabetic vehicle-treated rats (BB/W diabetic rats; 10 mg/kg i.p. daily, starting after 4 weeks and through six months of treatment, FIG. 11) | treatment time after which increase of motor and sensory nerve conduction velocities was significant (STZ-diabetic rats [4]; 10 mg/kg treatment group) [weeks] | motor and sensory nerve conduction velocities versus diabetic controls (STZ-diabetic rats [4]; either dose (10 mg/kg or 1 mg/kg), FIGS. 10A and 10B) | motor nerve conduction (STZ-diabetic rats [2]; lower doses 1 and 3 mg/kg, treatment 7 weeks post STZ, even 8 weeks after dosing) | sensory nerve conduction (STZ-diabetic rats [2]; lower doses 1 and 3 mg/kg, treatment 7 weeks post STZ, within 4 weeks of treatment) | neuropathic pain abnormalities (STZ-diabetic rats [2]; lower doses 1 and 3 mg/kg, treatment initiated 7 weeks post STZ, FIG. 34) | sensory and motor nerve conduction velocity deficits (STZ-diabetic rats [2]; rats left untreated until 60 days after STZ, external CRO, FIGS. 37 and 38)
O=C(O)c1cccc(CC(CCCS)C(=O)O)c1 (stereo not drawn) [Compound 5, 3-carboxy-alpha-(3-mercaptopropyl)-benzenepropanoic acid] | 6.5 | normalized the difference in scores | reversed towards normal | reversed the motor nerve conduction velocity towards normal | – | – | – | – | – | – | – | – | –
O=C(O)CCC(CCS)C(=O)O (stereo not drawn) [Compound D, 2-(2-sulfanylethyl)pentanedioic acid] | – | – | reversed towards normal | reversed the motor nerve conduction velocity towards normal | completely reversed | significantly less severe nerve conduction deficits | longer withdrawal latencies | 12 | increased both motor and sensory nerve conduction velocities | remained unimproved | significantly improved towards normal | Significant reduction in pain abnormalities | Partial reversal of both deficits
